Laboratory results published in patent US20040191115A1 (priority 2003, published 2004).
Values joined by “and” are separate entries in the source; they are usually repeats but may differ in a detail not shown here. Equal values may be shown once. Read-outs that look alike come from different tables or passages of the source.

Test system: bacillus atrophaeus spores
Conditions: 2.59 percent H2O2, slow speed, without cartons; for average count of colony forming units for the time period / log of average count for the time period: mean of samples
Method: Studies were conducted to determine the microbial eradication on mandrels 34 that were subjected to vaporized sterilant introduced at the heaters 40. […] The efficacy of the mandrel sterilization was studied for both the mandrel caps 35 and the mandrel side tubes 37 (see FIG. 3).
Each of the studies was further carried out using a testing media of bacillus atrophaeus spores for inoculating the mandrels. The mandrels were inoculated by spraying, using an aerating spray bottle having a solution with a concentration of about 7 log bacillus spores. The mandrels were then allowed to air dry. Controls were swabbed using cotton swabs to assure that the mandrels were properly inoculated. Following the machine operating period of the test, the mandrels were swabbed and the bacillus spores transferred to an agar media for incubation of the spores (at 32° C. for 48 hours) and subsequent recovery.
The data was collected by taking swab samples at the mandrel cap 35 (represented by C in the Table) and on the mandrel side tubes 37 (represented by T in the Table).

[1] = time 0 min, swab site C (mandrel cap)
[2] = time 0 min, swab site T (mandrel side tubes)
[3] = time 15 min, swab site C (mandrel cap)
[4] = time 15 min, swab site T (mandrel side tubes)
[5] = time 30 min, swab site C (mandrel cap)
[6] = time 30 min, swab site T (mandrel side tubes)
[7] = time 45 min, swab site C (mandrel cap)
[8] = time 45 min, swab site T (mandrel side tubes)
[9] = time 60 min, swab site C (mandrel cap)
[10] = time 60 min, swab site T (mandrel side tubes)

`OO` [hydrogen peroxide] was tested, and the “average count of colony forming units for the time period” value (shortened to “average count of colony forming units”) (time 0 min, cap) was 4.82E+05 CFU/mandrel, the “log of average count for the time period” value (time 0 min, cap) was 5.68 log and the “average count of colony forming units” value (time 0 min, side tubes) was 6.67E+05 CFU/mandrel. The “log of average count for the time period” value (time 0 min, side tubes) was 5.82 log, the “Average CFU/mL” value [1] was 1.19E+05 CFU/mL and 1.23E+05 CFU/mL and the “Average CFU/mandrel” value [1] was 4.74E+05 CFU/mandrel and 4.90E+05 CFU/mandrel. The “Log (of Average CFU/mandrel)” value [1] was 5.68 Log and 5.69 Log, the “Result 1 CFU/mL” value [1] was 1.24E+05 CFU/mL and 1.19E+05 CFU/mL and the “Result #2 CFU/mL” value [1] was 1.13E+05 CFU/mL and 1.26E+05 CFU/mL. The “Log (of Average CFU/mandrel)” value [2] was 5.95 Log and 5.65 Log, the “Result #2 CFU/mL” value [2] was 2.09E+05 CFU/mL and 1.17E+05 CFU/mL and the “average count of colony forming units” value (time 15 min, cap) was 3.47E+05 CFU/mandrel. The “log of average count for the time period” value (time 15 min, cap) was 5.54 log, the “average count of colony forming units” value (time 15 min, side tubes) was 4.02E+05 CFU/mandrel and the “log of average count for the time period” value (time 15 min, side tubes) was 5.60 log. The “Average CFU/mandrel” value [3] was 2.62E+05 CFU/mandrel and 4.32E+05 CFU/mandrel, the “Log (of Average CFU/mandrel)” value [3] was 5.42 Log and 5.64 Log and the “Average CFU/mL” value [4] was 1.01E+05 CFU/mL and 1.00E+05 CFU/mL. The “Average CFU/mandrel” value [4] was 4.04E+05 CFU/mandrel and 4.00E+05 CFU/mandrel, the “Log (of Average CFU/mandrel)” value [4] was 5.61 Log and 5.60 Log and the “Result 1 CFU/mL” value [4] was 1.03E+05 CFU/mL and 1.06E+05 CFU/mL. The “Result #2 CFU/mL” value [4] was 9.90E+04 CFU/mL and 9.40E+04 CFU/mL, the “Log Red. (Avg)” value (time 15 min relative to time zero, cap) was 0.14 Log and the “Log Red. (Avg)” value (time 15 min relative to time zero, side tubes) was 0.22 Log. The “average count of colony forming units” value (time 30 min, cap) was 3.82E+05 CFU/mandrel, the “log of average count for the time period” value (time 30 min, cap) was 5.58 log and the “average count of colony forming units” value (time 30 min, side tubes) was 4.34E+05 CFU/mandrel. The “log of average count for the time period” value (time 30 min, side tubes) was 5.64 log, the “Average CFU/mandrel” value [5] was 2.66E+05 CFU/mandrel and 4.98E+05 CFU/mandrel and the “Log (of Average CFU/mandrel)” value [5] was 5.42 Log and 5.70 Log. The “Average CFU/mandrel” value [6] was 4.74E+05 CFU/mandrel and 3.94E+05 CFU/mandrel, the “Log (of Average CFU/mandrel)” value [6] was 5.68 Log and 5.60 Log and the “Result #2 CFU/mL” value [6] was 1.15E+05 CFU/mL and 1.08E+05 CFU/mL. The “Log Red. (Avg)” value (time 30 min relative to time zero, cap) was 0.10 Log, the “Log Red. (Avg)” value (time 30 min relative to time zero, side tubes) was 0.19 Log and the “average count of colony forming units” value (time 45 min, cap) was 6.31E+05 CFU/mandrel. The “log of average count for the time period” value (time 45 min, cap) was 5.80 log, the “average count of colony forming units” value (time 45 min, side tubes) was 8.04E+05 CFU/mandrel and the “log of average count for the time period” value (time 45 min, side tubes) was 5.91 log. For the same compound, the “Average CFU/mL” value [7] was 1.43E+05 CFU/mL and 1.73E+05 CFU/mL, the “Average CFU/mandrel” value [7] was 5.72E+05 CFU/mandrel and 6.90E+05 CFU/mandrel and the “Log (of Average CFU/mandrel)” value [7] was 5.76 Log and 5.84 Log. The “Result 1 CFU/mL” value [7] was 1.51E+05 CFU/mL and 1.64E+05 CFU/mL, the “Result #2 CFU/mL” value [7] was 1.35E+05 CFU/mL and 1.81E+05 CFU/mL and the “Average CFU/mL” value [8] was 1.51E+05 CFU/mL and 2.52E+05 CFU/mL. For the same compound, the “Log (of Average CFU/mandrel)” value [8] was 5.78 Log and 6.00 Log, the “Result 1 CFU/mL” value [8] was 1.67E+05 CFU/mL and 2.49E+05 CFU/mL and the “Result #2 CFU/mL” value [8] was 1.34E+05 CFU/mL and 2.54E+05 CFU/mL. The “Log Red. (Avg)” value (time 45 min relative to time zero, cap) was −0.12 Log, the “Log Red. (Avg)” value (time 45 min relative to time zero, side tubes) was −0.08 Log and the “average count of colony forming units” value (time 60 min, cap) was 3.24E+05 CFU/mandrel. The “log of average count for the time period” value (time 60 min, cap) was 5.51 log, the “average count of colony forming units” value (time 60 min, side tubes) was 6.01E+05 CFU/mandrel and the “log of average count for the time period” value (time 60 min, side tubes) was 5.78 log. The “Average CFU/mL” value [9] was 7.35E+04 CFU/mL and 8.85E+04 CFU/mL, the “Average CFU/mandrel” value [9] was 2.94E+05 CFU/mandrel and 3.54E+05 CFU/mandrel and the “Log (of Average CFU/mandrel)” value [9] was 5.47 Log and 5.55 Log. For the same compound, the “Result 1 CFU/mL” value [9] was 6.30E+04 CFU/mL and 8.50E+04 CFU/mL, the “Result #2 CFU/mL” value [9] was 8.40E+04 CFU/mL and 9.20E+04 CFU/mL and the “Average CFU/mL” value [10] was 1.87E+05 CFU/mL and 1.14E+05 CFU/mL. For the same compound, the “Average CFU/mandrel” value [10] was 7.46E+05 CFU/mandrel and 4.56E+05 CFU/mandrel, the “Log (of Average CFU/mandrel)” value [10] was 5.87 Log and 5.66 Log and the “Result 1 CFU/mL” value [10] was 2.10E+05 CFU/mL and 1.20E+05 CFU/mL. The “Result #2 CFU/mL” value [10] was 1.63E+05 CFU/mL and 1.08E+05 CFU/mL and the “Log Red. (Avg)” value (time 60 min relative to time zero, cap) was 0.17 Log.
